Where two headings read alike, the source gives them in different places.
Tests used:
[1] = tested on: individual cell lines of central nervous system (CNS) cancer; assay: NCI 60-cell-line panel, summary by cancer type; type: cell-based
Protocol: (§1) Cell growth inhibition studies whose results are reported above were carried out at the National Cancer Institute essentially as follows. Cells grown in RPMI 1640 medium containing 5% fetal bovine serum and 2 mM L-glutamine were inoculated into 96-well microtiter plates, which were incubated for 24 hours prior to addition of CMAC-1 at five concentrations. After 48 hours, cold trichloroacetic acid was added, and the plates were washed and air dried. The cells were stained with sulforhodamine B (SRB), and the absorbance was read on an automated plate reader at a wavelength of 515 nm. The percentage growth was calculated at each of the drug concentrations. The growth inhibition of 50% (GI50) was then calculated. The GI50 is the drug concentration resulting in a 50% reduction in the net protein increase (as measured by SRB staining) in control cells during the drug incubation.

[2] = tested on: individual cell lines of non-small-cell lung cancer (NSCLC); assay: NCI 60-cell-line panel, summary by cancer type; type: cell-based
Protocol: as §1

[3] = tested on: individual cell lines of ovarian cancer; assay: NCI 60-cell-line panel, summary by cancer type; type: cell-based
Protocol: as §1

Melanoma = assay: NCI 60-cell-line panel, summary by cancer type; type: cell-based
Protocol: as §1

renal cancer = assay: NCI 60-cell-line panel, summary by cancer type; type: cell-based
Protocol: as §1

[4] = tested on: individual cell lines of prostate cancer; assay: NCI 60-cell-line panel, summary by cancer type; type: cell-based
Protocol: as §1

HCT-15 = assay: NCI 60-cell-line cancer screen, growth inhibition (SRB); type: cell-based; conditions: Homo sapiens
Protocol: as §1

HL60-(TB) = assay: as above; type: cell-based; conditions: Homo sapiens
Protocol: as §1

NCI-H322M = assay: as above; type: cell-based; conditions: NSCLC NCI-H322M, duplicate evaluations
Protocol: as §1

UACC-257 = assay: as above; type: cell-based
Protocol: as §1

EKVX = assay: as above; type: cell-based; conditions: NSCLC EKVX, duplicate evaluations
Protocol: as §1

U251 = assay: as above; type: cell-based
Protocol: as §1

M14 = assay: as above; type: cell-based; conditions: Homo sapiens; Melanoma M14; 48 hours; duplicate evaluations
Protocol: as §1

SNB-75 = assay: as above; type: cell-based
Protocol: as §1

SW-620 = assay: as above; type: cell-based; conditions: Homo sapiens
Protocol: as §1

SR = assay: as above; type: cell-based; conditions: Homo sapiens
Protocol: as §1

SF-539 = assay: as above; type: cell-based
Protocol: as §1

NCI-H522 = assay: as above; type: cell-based
Protocol: as §1

MDA-MB-435 = assay: as above; type: cell-based; conditions: Homo sapiens
Protocol: as §1

NCI-H226 = assay: as above; type: cell-based
Protocol: as §1

NCI-H460 = assay: as above; type: cell-based
Protocol: as §1

HS 578T = assay: as above; type: cell-based; conditions: Breast HS 578T, duplicate evaluations
Protocol: as §1

RPMI-8226 = assay: as above; type: cell-based; conditions: Homo sapiens
Protocol: as §1

SF-268 = assay: as above; type: cell-based
Protocol: as §1

SF-295 = assay: as above; type: cell-based
Protocol: as §1

OVCAR-3 = assay: as above; type: cell-based
Protocol: as §1

CCRF-CEM = assay: as above; type: cell-based; conditions: Leukemia CCRF-CEM, duplicate evaluations
Protocol: as §1

K562 = assay: as above; type: cell-based; conditions: Homo sapiens
Protocol: as §1

NCI/ADR-RES = assay: as above; type: cell-based; conditions: Breast NCI/ADR-RES, duplicate evaluations
Protocol: as §1

HT29 = assay: as above; type: cell-based
Protocol: as §1

OVCAR-8 = assay: as above; type: cell-based
Protocol: as §1

HOP-62 = assay: as above; type: cell-based
Protocol: as §1

MALMI-3M = assay: as above; type: cell-based; conditions: Melanoma MALMI-3M, duplicate evaluations
Protocol: as §1

MCF7 = assay: as above; type: cell-based
Protocol: as §1

MIA PaCa-2 cells = assay: Growth inhibition assay in pancreatic cancer cell lines (MTS); type: cell-based, human
Protocol: (§2) Growth inhibition assays for determination of GI50 values in pancreatic cancer cell lines were typically carried out essentially as follows. Compounds were individually tested at various concentrations against cancer cells grown in cell culture. The cell viability was determined by use of a standard assay that employs 3-(4,5-dimethylthiazol-2-yl)-5-(3-carboxymethoxyphenyl)-2-(4-sulfophenyl)-2H-tetrazolium, inner salt (MTS), and an electron coupling reagent, phenazine methosulfate (PMS). Absorbance at 490 nm (A490) was measured, and survival curves were obtained by comparison of A490 from treated cells with A490 from untreated cells (control). GI50 values were calculated from nonlinear curve fitting.

[5] = tested on: BxPC-3 (pancreatic) cancer cells; assay: as above; type: cell-based; conditions: read-out: 50% growth inhibition (GI50)
Protocol: as §2

Compound: C/C=C/C(=O)SCC(=O)Oc1cc(/C=C/C(=O)c2cc(OC)c(OC)c(OC)c2)ccc1OC [CMAC-1, 3-[3-(crotonylsulfanylmethylcarbonyloxy)-4-methoxyphenyl]-1-(3,4,5-trimethoxyphenyl)propenone]
- GI50 [1]: < 50 nM
- GI50 [2]: < 50 nM
- GI50 [3]: < 50 nM
- GI50 (Melanoma): < 75 nM
- GI50 (renal cancer): < 150 nM
- GI50 [4]: < 50 nM
- GI50 (HCT-15; Colon HCT-15, 48 hours, duplicate evaluations): < 10 nM
- GI50 (HCT-15; colon HCT-15, Table 2): < 10 nM
- GI50 (HL60-(TB); HL-60, Leukemia HL60-(TB), 48 hours, duplicate evaluations): < 10 nM
- GI50 (HL60-(TB); leukemia HL-60, Table 2): < 10 nM
- GI50 (NCI-H322M; Homo sapiens, NCI-H322M, 48 h): 85.1 nM
- GI50 (NCI-H322M; 48 hours): 70.3 nM
- GI50 (UACC-257; Homo sapiens, UACC-257, 48 h, Melanoma UACC-257, duplicate evaluations): 3580 nM
- GI50 (UACC-257; Melanoma UACC-257, 48 hours, duplicate evaluations): 4140 nM
- GI50 (EKVX; Homo sapiens, EKVX, 48 h): 2090 nM
- GI50 (EKVX; 48 hours): 1700 nM
- GI50 (U251; CNS U251, 48 hours, duplicate evaluations): 52.1 nM
- GI50 (U251; Homo sapiens, U-251, 48 h, CNS U251, duplicate evaluations): 42.7 nM
- GI50 (M14): 62.3 nM
- GI50 (SNB-75; CNS SNB-75, 48 hours, duplicate evaluations): < 10 nM
- GI50 (SNB-75; Homo sapiens, SNB-75, 48 h, CNS SNB-75, duplicate evaluations): 16.5 nM
- GI50 (SW-620; Colon SW-620, 48 hours, duplicate evaluations): < 10 nM
- GI50 (SW-620; colon SW-620, Table 2): < 10 nM
- GI50 (SR; Leukemia SR, 48 hours, duplicate evaluations): < 10 nM
- GI50 (SR; leukemia SR, Table 2): < 10 nM
- GI50 (SF-539; CNS SF-539, 48 hours, duplicate evaluations): < 10 nM
- GI50 (SF-539; Homo sapiens, 48 h, CNS SF-539, duplicate evaluations): 16.4 nM
- GI50 (NCI-H522; Homo sapiens, NCI-H522, 48 h, NSCLC NCI-H522, duplicate evaluations): 22.4 nM
- GI50 (NCI-H522; NSCLC NCI-H522, 48 hours, duplicate evaluations): 15.8 nM
- GI50 (MDA-MB-435; Breast MDA-MB-435, 48 hours, duplicate evaluations): < 10 nM
- GI50 (MDA-MB-435; breast cancer cells MDA-MB-435, Table 2): < 10 nM
- GI50 (NCI-H226; Homo sapiens, NCI-H226, 48 h, NSCLC NCI-H226, duplicate evaluations): 17200 nM
- GI50 (NCI-H226; NSCLC NCI-H226, 48 hours, duplicate evaluations): 11200 nM
- GI50 (NCI-H460; Homo sapiens, NCI-H460, 48 h, NSCLC NCI-H460, duplicate evaluations): 52.4 nM
- GI50 (NCI-H460; NSCLC NCI-H460, 48 hours, duplicate evaluations): 33.5 nM
- GI50 (HS 578T; 48 hours): 20.6 nM
- GI50 (HS 578T; Homo sapiens, Hs-578T, 48 h): 40.4 nM
- GI50 (RPMI-8226; Leukemia RPMI-8226, 48 hours, duplicate evaluations): < 10 nM
- GI50 (RPMI-8226; leukemia RPMI-8226, Table 2): < 10 nM
- GI50 (SF-268; CNS SF-268, 48 hours, duplicate evaluations): 63.8 nM
- GI50 (SF-268; Homo sapiens, SF-268, 48 h, CNS SF-268, duplicate evaluations): 81.1 nM
- GI50 (SF-295; CNS SF-295, 48 hours, duplicate evaluations): 231 nM
- GI50 (SF-295; Homo sapiens, SF-295, 48 h, CNS SF-295, duplicate evaluations): 215 nM
- GI50 (OVCAR-3; Homo sapiens, OVCAR-3, 48 h, Ovarian OVCAR-3, duplicate evaluations): 11.6 nM
- GI50 (OVCAR-3; Ovarian OVCAR-3, 48 hours, duplicate evaluations): < 10 nM
- GI50 (CCRF-CEM; Homo sapiens, CCRF-CEM, 48 h): 71.6 nM
- GI50 (CCRF-CEM; 48 hours): 86 nM
- GI50 (K562; K562, leukemia K-562, Table 2): < 10 nM
- GI50 (K562; Leukemia K562, 48 hours, duplicate evaluations): < 10 nM
- GI50 (NCI/ADR-RES; 48 hours): 32.2 nM
- GI50 (NCI/ADR-RES; Homo sapiens, NCI/ADR-RES, 48 h): 26.2 nM
- GI50 (HT29; Colon HT29, 48 hours, duplicate evaluations): 1680 nM
- GI50 (HT29; Homo sapiens, HT-29, 48 h, Colon HT29, duplicate evaluations): 2870 nM
- GI50 (OVCAR-8; Homo sapiens, OVCAR-8, 48 h, Ovarian OVCAR-8, duplicate evaluations): 43.9 nM
- GI50 (OVCAR-8; Ovarian OVCAR-8, 48 hours, duplicate evaluations): 47.1 nM
- GI50 (HOP-62; Homo sapiens, HOP-62, 48 h, NSCLC HOP-62, duplicate evaluations): 1230 nM
- GI50 (HOP-62; NSCLC HOP-62, 48 hours, duplicate evaluations): 1000 nM
- GI50 (MALMI-3M; 48 h): 74.2 nM
- GI50 (MALMI-3M; 48 hours): 44.7 nM
- GI50 (MCF7; Breast MCF7, 48 hours, duplicate evaluations): 30 nM
- GI50 (MCF7; Homo sapiens, MCF7, 48 h, Breast MCF7, duplicate evaluations): 28.5 nM
- melting point: 123 to 125.5 °C
- GI50 (MIA PaCa-2 cells; Homo sapiens, MIA PaCa-2 pancreatic cancer cells in culture, read-out: concentration required for 50% growth inhibition (GI50)): 16 nM

Compound: C/C=C/C(=O)SCC(=O)OCc1ccc(/C=C/C(=O)c2cc(OC)c(OC)c(OC)c2)o1 [CMAF-1, 3-[5-(crotonylsulfanylmethylcarbonyloxymethyl)-2-furyl]-1-(3,4,5-trimethoxyphenyl)propenone]
- GI50 (MIA PaCa-2 cells; human pancreatic cancer cell (MIA PaCa-2) growth in culture, read-out: GI50): 17000 nM

Compound: C=C(Cl)C(=O)Oc1cc(C=CC(=O)c2cc(OC)c(OC)c(OC)c2)ccc1OC [Entry 6, 3-[3-(2-Chloroacryloyloxy)-4-methoxyphenyl]-1-(3,4,5-trimethoxyphenyl)propenone]
- GI50 [5]: 4500 nM
- GI50 (MIA PaCa-2 cells; MIA PaCa-2 pancreatic cancer cells in culture, read-out: concentration required for 50% growth inhibition (GI50)): 56 nM

Source: patent US8552066B2, “Modified chalcone compounds as antimitotic agents” (Arizona Biomedical Research Commission, priority 2006, dated 2013)
